In patent publication US20240207224A1, “MACROCYCLIC CHALCONE-AMIDE DERIVED ANTIVIRAL AGENTS” (priority 2022, published 2024):
Where two headings read alike, the source gives them in different places.

Tests used:
[1] = target: SARS-CoV-2 Papain-like (PLpro) protease (Severe acute respiratory syndrome coronavirus 2, UniProt P0DTD1); assay: biochemical
SARS-CoV-2 USA-WA1/2020 = assay: SARS-CoV-2 Cellular Assay (Vero 76); assay type: cell-based; conditions: Severe acute respiratory syndrome coronavirus 2, Vero 76, 144 h, read-out: SARS-COV-2 BSL3 EC50
Procedure: SARS-CoV-2 Cellular Assay (Vero 76): Test compounds are serially diluted using eight half-log dilutions in test medium (MEM supplemented with 2% FBS and 50 µg/mL gentamicin). Each dilution is added to 5 wells of a 96-well plate with 80-100% confluent Vero 76 cells. Three wells of each dilution are infected with virus (SARS-CoV-2 USA-WA1/2020), and two wells remain uninfected as toxicity controls. Six wells are infected and untreated as virus controls, and six wells are uninfected and untreated as cell controls. Viruses are prepared to achieve the lowest possible multiplicity of infection (MOI˜0.002) that would yield >80% cytopathic effect (CPE) at 6 days. Plates are incubated at 37±2° C., 5% CO2. For neutral red assay, on day 6 post-infection, once untreated virus control wells reach maximum CPE, plates are stained with neutral red dye for approximately 2 hours (±15 minutes). Supernatant dye is removed, and wells are rinsed with PBS, and the incorporated dye is extracted in 50:50 Sorensen citrate buffer/ethanol for >30 minutes and the optical density is read on a spectrophotometer at 540 nm. Optical densities are converted to percent of cell controls and normalized to the virus control, then the concentration of test compound required to inhibit CPE by 50% (EC50) is calculated by regression analysis. The concentration of compound that would cause 50% cell death in the absence of virus was similarly calculated (CC50). EC50 ranges are reported as follows: A<1 µM; B 1-10 µM; C 10-50 µM; D>50 µM.

SARS-CoV-2 replicon = assay: microbe, parasite or virus in culture; assay type: cell-based
[2] = ubiquitin-fluorophore substrate (Ub-R110), 30 min preincubation at RT, run in duplicate, read-out: PLpro IC50
[3] = Severe acute respiratory syndrome coronavirus 2, Huh-7, 20 h, read-out: SARS-COV-2 replicon EC50
[4] = Severe acute respiratory syndrome coronavirus 2, Huh-7, 20 h; read-out: SARS-COV-2 replicon EC50

SMILES	IC50 [1, 2]	further results
C[C@H]1NC(=O)c2cc(ccc2CCC(=O)NNC(=O)OC(C)(C)C)CCCCCC=Cc2cc1c1ccccc1c2 [Example 21]	> 10000 nM	–
Cc1ccc2cc1C(=O)N[C@H](C)c1cc(cc3ccccc13)CCCCNC2 [Example 4]	1000 to 10000 nM	–
COC(=O)/C=C/C(=O)NNC(=O)CCc1ccc2cc1C(=O)N[C@H](C)c1cc(cc3c1CCCC3)CCCCCNS2(=O)=O [Example 36]	100 to 1000 nM	–
Cc1ccc2cc1C(=O)N[C@H](C)c1cc(cc3ccccc13)C(=O)N1CCN(CC1)C(=O)CC2 [Example 9]	> 10000 nM	–
COC(=O)/C=C/C(=O)NNC(=O)CCc1ccc2cc1C(=O)N[C@H](C)c1cc(cc3ccccc13)CCCCCNC2=O [Example 25]	–	EC50 (SARS-CoV-2 USA-WA1/2020): < 1000 nM; EC50 (SARS-CoV-2 replicon; [3]): < 1000 nM
COC(=O)/C=C/CNC(=O)C(=O)NCc1ccc2cc1C(=O)N[C@H](C)c1cc(cc3ccccc13)CCCCCNC2=O [Example 42, methyl (R,E)-4-(2-(((2-methyl-4,6-dioxo-3,7-diaza-1(1,3)-naphthalena-5(1,3)-benzenacyclododecaphane-5^6-yl)methyl)amino)-2-oxoacetamido)but-2-enoate]	> 10000 nM	–
COC(=O)/C=C/C(=O)NNC(=O)CCc1ccc2cc1C(=O)N[C@H](C)c1cc(cc3ccccc13)CCCCCN(C)C2=O [Example 31]	< 100 nM	–
COC(=O)/C=C/C(=O)NNC(=O)CCc1ccc2cc1C(=O)N[C@H](C)c1cc(cc3ccccc13)C=CCCCCN(C)C2=O [Example 29]	< 100 nM	–
COC(=O)/C=C/C(=O)NNC(=O)CCc1ccc2cc1C(=O)N[C@H](C)c1cc(cc3ccccc13)CCCCCS(=O)(=O)C2 [Example 24]	< 100 nM	EC50 (SARS-CoV-2 replicon; [4]): 10000 to 50000 nM
C[C@H]1NC(=O)c2cc(ccc2C#N)C(=O)NCCCCCc2cc1c1ccccc1c2 [Example 41]	1000 to 10000 nM	–
COC(=O)/C=C/C(=O)NNC(=O)CCc1ccc2cc1C(=O)N[C@H](C)c1cc(cc3ccccc13)CCCCCC(=O)N2 [Example 39]	< 100 nM	EC50 (SARS-CoV-2 USA-WA1/2020): < 1000 nM; EC50 (SARS-CoV-2 replicon; [4]): 1000 to 10000 nM
COC(=O)/C=C/C(=O)NNC(=O)CCc1ccc2cc1C(=O)N[C@H](C)c1cccc3ccc(cc13)CCCCNC2=O [Example 34]	100 to 1000 nM	–
COC(=O)/C=C/C(=O)NNC(=O)CCc1ccc2cc1C(=O)N[C@H](C)c1cc(cc3ccccc13)C=CCCCN(C)C2=O [Example 32]	< 100 nM	–
Cc1ccc2cc1C(=O)N[C@H](C)c1cc(cc3ccccc13)C=CCCN(C(=O)OCc1ccccc1)C2 [Example 3]	> 10000 nM	–
Cc1ccc2cc1C(=O)N[C@H](C)c1cc(cc3ccccc13)C=CCCCN(C(=O)OCc1ccccc1)C2 [Example 1]	–	IC50 [1]: > 10000 nM
COC(=O)/C=C/C(=O)NNC(=O)CCc1ccc2cc1C(=O)N[C@H](C)c1cc(cc3ccccc13)CCCCCCC2 [Example 18]	100 to 1000 nM	EC50 (SARS-CoV-2 USA-WA1/2020): 1000 to 10000 nM; EC50 (SARS-CoV-2 replicon; [4]): 10000 to 50000 nM
Cc1ccc2cc1C(=O)N[C@H](C)c1c(ccc3ccccc13)CCCCCNC2 [Example 8]	> 10000 nM	–
COC(=O)/C=C/C(=O)NNC(=O)CCc1ccc2cc1C(=O)N[C@H](C)c1cc(cc3ccccc13)C=CCCCCC2 [Example 19]	< 100 nM	EC50 (SARS-CoV-2 replicon; [4]): 1000 to 10000 nM
Cc1ccc2cc1C(=O)N[C@H](C)c1cc(cc3ccccc13)C=CCCCCC2 [Example 6]	> 10000 nM	–
COC(=O)/C=C/C(=O)NNC(=O)CCc1ccc2cc1C(=O)N[C@H](C)c1cc(cc3ccccc13)C=CCCCCNC2=O [Example 27]	< 100 nM	–

SMILES	IC50 [1, 2]	further results
Cc1ccc2cc1C(=O)N[C@H](C)c1cc(cc3ccccc13)C(=O)N(C)CCCN(C)C(=O)CC2 [Example 11]	> 10000 nM	–
COC(=O)/C=C/C(=O)NNC(=O)CCc1ccc2cc1C(=O)N[C@H](C)c1cc(cc3ccccc13)CCCCCNS2(=O)=O [Example 35]	< 100 nM	–
COC(=O)/C=C/C(=O)NNC(=O)CCc1ccc2cc1C(=O)N[C@H](C)c1cc(cc3ccccc13)CCCCCCNC2=O [Example 26]	< 100 nM	–
Cc1ccc2cc1C(=O)N[C@H](C)c1cc(cc3ccccc13)-c1cn(nn1)CCCCC(=O)NC2 [Example 14]	100 to 1000 nM	EC50 (SARS-CoV-2 replicon; [4]): > 50000 nM
COC(=O)/C=C/C(=O)NNC(=O)CCc1ccc2cc1C(=O)N[C@H](C)c1cc(cc3ccccc13)CCCCCCS(=O)(=O)C2 [Example 23]	< 100 nM	EC50 (SARS-CoV-2 replicon; [4]): 10000 to 50000 nM
Cc1ccc2cc1C(=O)N[C@H](C)c1c(ccc3ccccc13)CCCCNC2 [Example 7]	1000 to 10000 nM	–
COC(=O)/C=C/C(=O)NNC(=O)CCc1ccc2cc1C(=O)N[C@H](C)c1cc(cc3ccccc13)CCCCOC(=O)N2 [Example 40]	< 100 nM	EC50 (SARS-CoV-2 USA-WA1/2020): < 1000 nM; EC50 (SARS-CoV-2 replicon; [4]): 1000 to 10000 nM
C[C@H]1NC(=O)c2cc(ccc2CCC(=O)NN)CCCCCC=Cc2cc1c1ccccc1c2 [Example 20]	> 10000 nM	–
COC(=O)/C=C/C(=O)NNC(=O)CCc1ccc2cc1C(=O)N[C@H](C)c1cc(cc3ccccc13)CCCCOCCNC2=O [Example 37]	< 100 nM	EC50 (SARS-CoV-2 USA-WA1/2020): < 1000 nM; EC50 (SARS-CoV-2 replicon; [4]): < 1000 nM
Cc1ccc2cc1C(=O)N[C@H](C)c1cc(cc3ccccc13)CCCCCNC2 [Example 2]	100 to 1000 nM	EC50 (SARS-CoV-2 USA-WA1/2020): 1000 to 10000 nM; EC50 (SARS-CoV-2 replicon; [4]): 1000 to 10000 nM
COC(=O)/C=C/C(=O)NNC(=O)CCc1ccc2cc1C(=O)N[C@H](C)c1cc(cc3ccccc13)C=CCCCNC2=O [Example 28]	< 100 nM	–
COC(=O)/C=C/C(=O)N(NC(=O)CCc1ccc2cc1C(=O)N[C@H](C)c1cc(cc3ccccc13)CCCCOCCNC2=O)C(=O)/C=C/C(=O)OC [Example 38]	< 100 nM	–
Cc1ccc2cc1C(=O)N[C@H](C)c1cc(cc3ccccc13)-c1cn(nn1)CCCC(=O)NC2 [Example 13]	> 10000 nM	–
Cc1ccc2cc1C(=O)N[C@H](C)c1cc(cc3ccccc13)N1CCN(CCCCC(=O)NC2)CC1 [Example 16]	> 10000 nM	–
Cc1ccc2cc1C(=O)N[C@H](C)c1cc(cc3ccccc13)-c1cn(nn1)CCCCNC2 [Example 17]	–	EC50 (SARS-CoV-2 replicon; [3]): 10000 to 50000 nM; IC50 [1]: 100 to 1000 nM
Cc1ccc2cc1C(=O)N[C@H](C)c1cc(cc3ccccc13)N1CCN(CCCC(=O)NC2)CC1 [Example 15]	1000 to 10000 nM	–
COC(=O)/C=C/C(=O)NNC(=O)CCc1ccc2cc1C(=O)N[C@H](C)c1cccc(c1)C=CCCCCC2 [Example 22]	1000 to 10000 nM	–
COC(=O)/C=C/C(=O)NNC(=O)CCc1ccc2cc1C(=O)N[C@H](C)c1cc(cc3ccccc13)CCCCCCN(C)C2=O [Example 30]	< 100 nM	EC50 (SARS-CoV-2 USA-WA1/2020): < 1000 nM; EC50 (SARS-CoV-2 replicon; [4]): 1000 to 10000 nM
Cc1ccc2cc1C(=O)N[C@H](C)c1cc(cc3ccccc13)C(=O)N(C)CCCC(=O)NC2 [Example 12]	> 10000 nM	–
Cc1ccc2cc1C(=O)N[C@H](C)c1cc(cc3ccccc13)CCCCCCNC2 [Example 5]	100 to 1000 nM	EC50 (SARS-CoV-2 replicon; [4]): 1000 to 10000 nM
